Target: jack bean urease (Canavalia ensiformis, UniProt P07374)
Test: Urease inhibition in solution (modified Bremner procedure, purified jack bean urease in aqueous solution)
Assay type: biochemical
Settings: commercial purified jack bean urease
Procedure: Efficacy tests were conducted with jack bean urease. The procedure of Bremner (See. L. A. Douglas, J. M. Bremner, Soil Biology Biochem., 3, 859-859 (1970), and references cited therein was modified by replacing the soil as the source of urease with commercial purified jack bean urease. The incubation then proceeds in aqueous solution. The results are set forth in the following Table I.

jack bean urease, sequence (P07374 whole entry, looked up): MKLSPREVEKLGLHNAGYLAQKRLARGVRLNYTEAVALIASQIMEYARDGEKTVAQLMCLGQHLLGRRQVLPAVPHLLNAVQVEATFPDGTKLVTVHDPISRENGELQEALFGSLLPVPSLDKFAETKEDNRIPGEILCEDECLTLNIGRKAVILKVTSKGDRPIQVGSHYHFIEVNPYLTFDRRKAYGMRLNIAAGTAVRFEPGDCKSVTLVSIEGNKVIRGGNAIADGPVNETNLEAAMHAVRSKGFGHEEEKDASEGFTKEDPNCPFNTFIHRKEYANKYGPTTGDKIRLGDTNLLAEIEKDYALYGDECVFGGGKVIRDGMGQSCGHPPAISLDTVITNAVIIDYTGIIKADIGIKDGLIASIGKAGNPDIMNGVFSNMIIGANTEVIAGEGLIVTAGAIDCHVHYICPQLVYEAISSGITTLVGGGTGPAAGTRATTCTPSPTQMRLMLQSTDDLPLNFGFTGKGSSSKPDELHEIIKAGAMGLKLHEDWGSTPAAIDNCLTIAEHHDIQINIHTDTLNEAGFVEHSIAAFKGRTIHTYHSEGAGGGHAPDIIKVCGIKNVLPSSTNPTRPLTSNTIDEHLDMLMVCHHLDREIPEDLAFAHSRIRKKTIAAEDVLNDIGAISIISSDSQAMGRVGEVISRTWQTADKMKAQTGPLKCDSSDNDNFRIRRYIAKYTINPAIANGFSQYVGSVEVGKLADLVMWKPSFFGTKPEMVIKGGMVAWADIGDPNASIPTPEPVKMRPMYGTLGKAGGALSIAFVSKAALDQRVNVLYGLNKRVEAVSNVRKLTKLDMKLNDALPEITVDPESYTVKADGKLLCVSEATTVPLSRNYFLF

## NP(N)(=O)NC(=O)c1ccc(N2C(=O)C=CC2=O)cc1 [N-(diaminophosphinyl)-4-(1'-maleimido)benzamide]
Compound at 10^-6 M, read-out: % Inhibition at Specific Concentration 10^-6 M
  inhibition at 1 µM: 59%
Compound at 10^-7 M, read-out: % Inhibition at Specific Concentration 10^-7 M
  inhibition at 0.1 µM: 8%
